Earlier results as cited in PMC2211560 (PLoS Medicine, 2008).
Where two headings read alike, the source gives them in different places.

Tests used:
[1] = rats and monkeys; daily for 14 days or daily for 5 days IV every 2 weeks, 4 courses; cited from earlier work
[2] = tested on: cytochrome P450 3A (CYP3A); conditions: human liver microsomal fractions; cited from earlier work
[3] = monkeys, cited from earlier work
[4] = tested on: several tumor types; conditions: Phase I trials; renal cell cancer, soft tissue sarcoma, cervical, endometrial, non-small cell cancer, non-Hodgkins lymphoma; cited from earlier work
[5] = rats, cited from earlier work
[6] = in vitro or in vivo; cited from earlier work
[7] = cited from earlier work
[8] = cited from earlier work; remark: listed apart in the source
[9] = doses of 0.1-2.5 mg/kg, printed jointly for monkeys and rats

## CO[C@H]1C[C@@H]2CC[C@@H](C)[C@@](O)(O2)C(=O)C(=O)N2CCCC[C@H]2C(=O)O[C@H]([C@H](C)C[C@@H]2CC[C@@H](OC(=O)C(C)(CO)CO)[C@H](OC)C2)CC(=O)[C@H](C)/C=C(\C)[C@@H](O)[C@@H](OC)C(=O)[C@H](C)C[C@H](C)/C=C/C=C/C=C/1C [CCI-779]
[1]
  life-threatening toxicity: No life-threatening toxicity was observed
[2]
  metabolising enzyme: primarily metabolized by cytochrome P450 3A (CYP3A)
[3]; [9]
  elimination half life: 8 to 16 h
[3]
  volume of distribution (Vdss): 1 to 5 L/kg
[4]
  Tumor regression: less than 50%
[5]; [9]
  elimination half life: 8 to 16 h
[5]
  volume of distribution (Vdss): 13 to 19 L/kg
[6]
  mutagenic effects: no mutagenic effects
[7]; 0.75 to 3.12 mg/m^2 daily x 5 schedule
  blood/plasma (B/P) ratio, mean (range): 9.8 (2.4-20)
[7]; blood, after CCI-779
  mean exposure ratio (rapamycin to CCI-779): ~3.2
[7]; weekly dosing
  half-life: 19.3 h
  half-life, range: 13 to 39 h
  mean clearance: 22 L/h
  volume of distribution at steady state: 306 L
[8]; daily x 5 every 2 weeks, heavily pretreated patients
  MTD: 15 mg/m^2
[8]; daily x 5 every 2 weeks, minimally pretreated patients
  MTD: 19.1 mg/m^2
[8]; weekly schedule, doses 7.5 mg/m^2 to 220 mg/m^2
  MTD: has not yet been reached
